Experiments:
UGT71E5 = target: T1, UGT71E5 (Carthamus tinctorius, UniProt A0A1P8C3B1); assay: HPLC-MS conversion; type: biochemical; details: 0.4 mmol/L acceptor, 0.8 mmol/L UDP-Glc, pH 7.4
T1 sequence (A0A1P8C3B1 1-480): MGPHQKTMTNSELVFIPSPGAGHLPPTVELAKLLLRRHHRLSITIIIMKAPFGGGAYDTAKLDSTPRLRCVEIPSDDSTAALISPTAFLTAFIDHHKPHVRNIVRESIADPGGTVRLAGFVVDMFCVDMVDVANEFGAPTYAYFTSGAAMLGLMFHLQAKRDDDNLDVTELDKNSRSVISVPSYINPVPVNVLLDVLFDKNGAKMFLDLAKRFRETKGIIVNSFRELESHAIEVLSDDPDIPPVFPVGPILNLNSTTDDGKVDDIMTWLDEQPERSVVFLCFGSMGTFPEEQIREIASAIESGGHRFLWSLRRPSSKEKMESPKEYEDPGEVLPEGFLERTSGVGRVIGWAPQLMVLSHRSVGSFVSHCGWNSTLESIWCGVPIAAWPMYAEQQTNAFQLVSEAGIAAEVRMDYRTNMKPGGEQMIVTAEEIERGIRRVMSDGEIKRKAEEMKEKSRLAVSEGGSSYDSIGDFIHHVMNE

DoBBS8 = assay: HPLC quantification of dihydroresveratrol, nonlinear regression; type: biochemical, Dendrobium officinale; details: malonyl-CoA 2.0 mmol/L fixed; 30 °C, 30 min

| SMILES | conversion rate (UGT71E5) [%] | Km (DoBBS8) [µM] |
| --- | --- | --- |
| Oc1ccc(CCc2cc(O)cc(O)c2)cc1 [compound 1, dihydro-resveratrol] | 94 | – |
| CC(C)(COP(=O)(O)OP(=O)(O)OC[C@H]1O[C@@H](n2cnc3c(N)ncnc32)[C@H](O)[C@@H]1OP(=O)(O)O)[C@@H](O)C(=O)NCCC(=O)NCCSC(=O)CCc1ccc(O)cc1 [p-hydroxyphenylpropionyl-CoA] | – | 61.8 |
